Test results from ChEMBL document CHEMBL1122604, “(E)-2-(3,4-dimethoxyphenyl)-3-fluoroallylamine: a selective, enzyme-activated inhibitor of type B monoamine oxidase” (J Med Chem, 1984).
Values joined by “and” are separate entries in the source; they are usually repeats but may differ in a detail not shown here. Identical values can stand only once.

Experiments:
[1] = The minimum half-life at apparent dissociation concentration of 40 uM at 10 degrees Centigrade.; type: ADME
[2] = The minimum half-life at saturation concentration of 130 uM at 10 degrees Centigrade.; type: ADME; settings: read-out: T50
[3] = target: T1, Amine oxidase [flavin-containing] A (Rattus norvegicus, UniProt P21396); assay: Inhibition of monoamine oxidase (MAO) type A by administering the compound perorally at a dose level of 0.5 mg/(kg day).; type: functional; settings: po
T1 sequence (P21396 whole entry): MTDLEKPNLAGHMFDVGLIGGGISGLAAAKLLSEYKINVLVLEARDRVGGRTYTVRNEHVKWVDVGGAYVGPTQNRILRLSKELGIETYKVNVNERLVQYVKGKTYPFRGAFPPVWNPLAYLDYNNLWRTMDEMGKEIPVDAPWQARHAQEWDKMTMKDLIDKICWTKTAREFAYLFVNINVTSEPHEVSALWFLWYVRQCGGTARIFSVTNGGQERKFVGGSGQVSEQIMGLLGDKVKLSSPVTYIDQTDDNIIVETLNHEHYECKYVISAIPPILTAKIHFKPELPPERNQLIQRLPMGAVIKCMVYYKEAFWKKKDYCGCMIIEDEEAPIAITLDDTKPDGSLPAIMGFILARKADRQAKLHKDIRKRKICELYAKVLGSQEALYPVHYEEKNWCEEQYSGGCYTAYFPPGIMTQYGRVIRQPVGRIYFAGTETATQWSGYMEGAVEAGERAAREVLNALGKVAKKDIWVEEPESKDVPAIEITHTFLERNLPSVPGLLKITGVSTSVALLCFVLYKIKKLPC

[4] = target: T2, Amine oxidase [flavin-containing] B (Rattus norvegicus, UniProt P19643); assay: Inhibition of monoamine oxidase (MAO) type B by administering the compound perorally at a dose level of 0.5 mg/(kg day).; type: functional; settings: po
T2 sequence (P19643 whole entry): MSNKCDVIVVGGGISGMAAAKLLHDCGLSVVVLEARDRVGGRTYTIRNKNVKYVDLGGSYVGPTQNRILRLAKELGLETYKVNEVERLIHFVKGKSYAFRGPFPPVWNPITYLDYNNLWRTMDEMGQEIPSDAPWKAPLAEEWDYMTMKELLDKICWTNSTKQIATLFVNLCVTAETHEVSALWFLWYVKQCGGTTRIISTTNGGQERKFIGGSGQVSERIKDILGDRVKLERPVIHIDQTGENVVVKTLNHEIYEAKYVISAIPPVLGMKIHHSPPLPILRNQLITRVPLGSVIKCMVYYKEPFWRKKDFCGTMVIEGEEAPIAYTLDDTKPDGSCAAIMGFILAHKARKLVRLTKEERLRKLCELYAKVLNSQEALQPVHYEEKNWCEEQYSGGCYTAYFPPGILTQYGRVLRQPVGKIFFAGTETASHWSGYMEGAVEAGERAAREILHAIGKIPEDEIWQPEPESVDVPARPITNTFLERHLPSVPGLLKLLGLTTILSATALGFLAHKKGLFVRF

Rattus norvegicus = organism: Rattus norvegicus; assay: Compound was evaluated for apparent kinetic dissociation (Ki) using Kitz and Wilson method.; type: functional, organism-based
[5] = target: T1, Amine oxidase [flavin-containing] A; assay: Inhibition of monoamine oxidase (MAO) type A by administering the compound perorally at a dose level of 2.5 mg/(kg day).; type: functional; settings: po

`COc1ccc(/C(=C\F)CN)cc1OC.Cl` gave a T50 [1] of 1.7 min, a half-life at 130 µM [2] of 14.5 min and an Inhibition [3] of less than 15%. For the same compound, the Inhibition [4] was greater than 85%, the Ki (Rattus norvegicus) was 40 µM and 130 µM and the Inhibition [5] was 50%.
